Among the data in PubChem BioAssay AID2060897 (Molecular Pharmacology Branch, DTP, NCI, 2025) are IC50 and viability, T/C values, retold here.

The assay concerns 966289-007-R4-J1-PDC complex spheroid viability. The assay is described as follows: Anticancer human tumor 966289-007-R4-J1-PDC patient-derived pancreatic adenocarcinoma cell line growth inhibition [RAS]. The following applies: for viability, T/C: stronger effect = lower value. The method, boiled down: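 Multi-cell-type spheroids: tumor cells plus HUVEC endothelial cells and mesenchymal stem cells. RAS-pathway inhibitors were combined with targeted agents, each dosed in half-log steps down from clinical Cmax, or from 10 microM when Cmax was unknown.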

Where [1] appears, read: curve of first compound, second compound 0.0316 µM.
[2] abbreviates: curve of first compound, second compound 0.1 µM.
Setting [3] is: curve of first compound, second compound 0.316 µM.
The mark [4] stands for this setting: curve of first compound, second compound 1 µM.
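Note: spheroids exposed to agents for one week before readout.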
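Throughout, for viability, T/C: percent viability relative to DMSO vehicle control wells as 100%.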

For `O=C(c1ccc(F)c(F)c1Nc1ccc(I)cc1F)N1CC(O)([C@@H]2CCCCN2)C1` + C=CC(=O)N1CCN(c2nc(OCC3CCCN3C)nc3c(F)c(-c4nc(N)cc(C)c4C(F)(F)F)c(Cl)cc23)C(C)C1, the IC50 stood at 0.509 µM (curve of first compound, second compound 0.00316 µM); 0.618 µM (curve of first compound, second compound 0.01 µM); 0.648 µM under setting [1]; 0.57 µM under setting [2]; 0.74 µM under setting [3]; 0.694 µM under setting [4]. Moreover, the viability, T/C reads like this: (second compound 0.00316 µM, first compound 0.00316 µM) 98.1%; (second compound 0.00316 µM, first compound 0.01 µM) 87.5%; (second compound 0.00316 µM, first compound 0.0316 µM) 77.2%; (second compound 0.00316 µM, first compound 0.1 µM) 72.3%; (second compound 0.00316 µM, first compound 0.316 µM) 63.5%; (second compound 0.00316 µM, first compound 1 µM) 36.4%. Also, the viability, T/C is 78.5% (second compound 0.01 µM, first compound 0.00316 µM); 80.9% (second compound 0.01 µM, first compound 0.01 µM); 71.2% (second compound 0.01 µM, first compound 0.0316 µM); 75.8% (second compound 0.01 µM, first compound 0.1 µM); 62.9% (second compound 0.01 µM, first compound 0.316 µM); 40.3% (second compound 0.01 µM, first compound 1 µM). In addition, the viability, T/C reads like this: (second compound 0.0316 µM, first compound 0.00316 µM) 94.6%; (second compound 0.0316 µM, first compound 0.01 µM) 75.3%; (second compound 0.0316 µM, first compound 0.0316 µM) 76.3%; (second compound 0.0316 µM, first compound 0.1 µM) 70.3%; (second compound 0.0316 µM, first compound 0.316 µM) 66.5%; (second compound 0.0316 µM, first compound 1 µM) 40.8%. In addition, the viability, T/C was 95.9% (second compound 0.1 µM, first compound 0.00316 µM); 70.3% (second compound 0.1 µM, first compound 0.01 µM); 85.1% (second compound 0.1 µM, first compound 0.0316 µM); 72.2% (second compound 0.1 µM, first compound 0.1 µM); 63.5% (second compound 0.1 µM, first compound 0.316 µM); 38.2% (second compound 0.1 µM, first compound 1 µM). Also, the viability, T/C was 84% (second compound 0.316 µM, first compound 0.00316 µM); 82.6% (second compound 0.316 µM, first compound 0.01 µM); 78.6% (second compound 0.316 µM, first compound 0.0316 µM); 76.2% (second compound 0.316 µM, first compound 0.1 µM); 68% (second compound 0.316 µM, first compound 0.316 µM); 43.6% (second compound 0.316 µM, first compound 1 µM). Besides, the viability, T/C is 70.2% (second compound 1 µM, first compound 0.00316 µM); 71.1% (second compound 1 µM, first compound 0.01 µM); 71.3% (second compound 1 µM, first compound 0.0316 µM); 77.2% (second compound 1 µM, first compound 0.1 µM); 63.5% (second compound 1 µM, first compound 0.316 µM); 42.7% (second compound 1 µM, first compound 1 µM).

For the compound `CC1(C)CCC(Nc2ncc(C(F)(F)F)c(-c3c[nH]c4c(P(C)(C)=O)c(C#N)ccc34)n2)CN1` (stereo not given) + C#Cc1c(F)ccc2cc(O)cc(-c3ncc4c(N5CC6CCC(C5)N6)nc(OCC56CCCN5CC(F)C6)nc4c3F)c12, the concentration for half-maximal inhibition (IC50) is, setting by setting: under setting [1], 0.017 µM; under setting [2], 0.0156 µM; under setting [3], 0.0183 µM; under setting [4], 0.0196 µM; (curve of first compound, second compound 3.16 µM) 0.0191 µM; (curve of first compound, second compound 10 µM) 0.0186 µM. Further, the viability, T/C is, setting by setting: (second compound 0.0316 µM, first compound 0.000949 µM) 113%; (second compound 0.0316 µM, first compound 0.003 µM) 107%; (second compound 0.0316 µM, first compound 0.00949 µM) 80.6%; (second compound 0.0316 µM, first compound 0.03 µM) 19.9%; (second compound 0.0316 µM, first compound 0.0949 µM) 15.4%; (second compound 0.0316 µM, first compound 0.3 µM) 11.9%. Besides, the viability, T/C reads like this: (second compound 0.1 µM, first compound 0.000949 µM) 107%; (second compound 0.1 µM, first compound 0.003 µM) 131%; (second compound 0.1 µM, first compound 0.00949 µM) 76.4%; (second compound 0.1 µM, first compound 0.03 µM) 20.8%; (second compound 0.1 µM, first compound 0.0949 µM) 13.4%; (second compound 0.1 µM, first compound 0.3 µM) 11.3%. Besides, the viability, T/C by setting is: (second compound 0.316 µM, first compound 0.000949 µM) 102%; (second compound 0.316 µM, first compound 0.003 µM) 134%; (second compound 0.316 µM, first compound 0.00949 µM) 90.3%; (second compound 0.316 µM, first compound 0.03 µM) 20.8%; (second compound 0.316 µM, first compound 0.0949 µM) 13.9%; (second compound 0.316 µM, first compound 0.3 µM) 12.9%. Also, the viability, T/C is 106% (second compound 1 µM, first compound 0.000949 µM); 131% (second compound 1 µM, first compound 0.003 µM); 89.3% (second compound 1 µM, first compound 0.00949 µM); 27.3% (second compound 1 µM, first compound 0.03 µM); 13.8% (second compound 1 µM, first compound 0.0949 µM); 10.3% (second compound 1 µM, first compound 0.3 µM). Further, the viability, T/C runs as follows: (second compound 3.16 µM, first compound 0.000949 µM) 115%; (second compound 3.16 µM, first compound 0.003 µM) 135%; (second compound 3.16 µM, first compound 0.00949 µM) 91.7%; (second compound 3.16 µM, first compound 0.03 µM) 24.1%; (second compound 3.16 µM, first compound 0.0949 µM) 12.2%; (second compound 3.16 µM, first compound 0.3 µM) 12.1%. Moreover, the viability, T/C by setting is: (second compound 10 µM, first compound 0.000949 µM) 101%; (second compound 10 µM, first compound 0.003 µM) 113%; (second compound 10 µM, first compound 0.00949 µM) 89.8%; (second compound 10 µM, first compound 0.03 µM) 21.9%; (second compound 10 µM, first compound 0.0949 µM) 15.1%; (second compound 10 µM, first compound 0.3 µM) 9.97%.

With `CCN1CCN(Cc2ccc(Nc3ncc(F)c(-c4cc(F)c5nc(C)n(C(C)C)c5c4)n3)nc2)CC1`, the viability, T/C reads like this: (compound 0.00316 µM) 113% [middle of 4 runs]; (compound 0.01 µM) 100% [middle of 4 runs]; (compound 0.316 µM) 94.4% [middle of 4 runs]; (compound 1 µM) 84% [middle of 4 runs]. Under “curve of compound”, the IC50 is more than 1 µM.

As for `CC(C)n1nc(-c2ccc3oc(N)nc3c2)c2c(N)ncnc21`, the viability, T/C (compound 0.0316 µM) is 52.2% [middle of 4 runs] and the viability, T/C (compound 0.1 µM) was 18.5% [middle of 4 runs]. Further, the IC50 (curve of compound) is 33.4 nM [middle of 4 runs].

Consider `C[C@@H](NC(=O)c1ncnc(N)c1Cl)c1ncc(C(=O)Nc2cc(C(F)(F)F)c(Cl)cn2)s1`, for which the viability, T/C reads like this: (compound 0.0316 µM) 106% [middle of 4 runs]; (compound 10 µM) 99.5% [middle of 4 runs]. Also, under “curve of compound”, the IC50 is more than 10 µM.

Broadly, the IC50 is the concentration that gives 50% inhibition. Broadly, the viability, T/C is the ratio of treated to control.
